Tested on: primary human T cells
Test: FD10 delivery in primary human T cells by flow cytometry
Assay type: cell-based
Settings: human T cells with dex-NG and FD10, ROS scavenger added (FIG. 12a)
Method: FIG. 8. […] Human T cells were isolated from peripheral blood mononuclear cells and expanded for several weeks. […] As a control, cells were treated with nucleofection (program E0-115, Lonza Nucleofector, white bars) (a) Quantitative analysis of FD10 delivery efficiency using flow cytometry. Cells were stained with a membrane exclusion dye (TO-PRO-3 iodide) staining dead cells. TO-PRO-3 iodide negative cells were gated for delivery efficiency analysis. (b) Analysis of cell viability, 4 h after treatment, using an ATP-based viability assay (CellTiter-Glo®). (c-d) Quantitative analysis of FD10 delivery efficiency using flow cytometry on TO-PRO-3 iodide negative cells. The yield is determined as percentage living cells (based on CellTiter-Glo® assay), multiplied by the percentage of FD10-positive cells. Data shown as the mean±SD of three independent experiments (n=3). Statistical significance is reported where relevant (ns p≥0.05, * p<0.05, ** p≤0.01, *** p≤0.001, **** p≤0.0001).
Human T cells were seeded at 1×10^6 cells per well in a glass bottom 96-well plate (Greiner Bio-One GmbH, Vilvoorde, Belgium). […] Quantitative analysis of delivery efficiency was performed using flow cytometry on living (i.e. TO-PRO-3 negative) cells (CytoFLEX equipped with CytExpert software; Beckman Coulter, Krefeld, Germany). […]

## OCCS [β-mercaptoethanol]
  beneficial effect on cytosolic FD10 delivery as seen with NAC: could not be replicated
